Source: article PMC3597028 (Disease Models & Mechanisms, 2012)

Molecular target: PAD2 (peptidylarginine deiminase 2) (Homo sapiens, UniProt Q9Y2J8)
Type: biochemical

PAD2 (peptidylarginine deiminase 2), sequence (Q9Y2J8 whole entry): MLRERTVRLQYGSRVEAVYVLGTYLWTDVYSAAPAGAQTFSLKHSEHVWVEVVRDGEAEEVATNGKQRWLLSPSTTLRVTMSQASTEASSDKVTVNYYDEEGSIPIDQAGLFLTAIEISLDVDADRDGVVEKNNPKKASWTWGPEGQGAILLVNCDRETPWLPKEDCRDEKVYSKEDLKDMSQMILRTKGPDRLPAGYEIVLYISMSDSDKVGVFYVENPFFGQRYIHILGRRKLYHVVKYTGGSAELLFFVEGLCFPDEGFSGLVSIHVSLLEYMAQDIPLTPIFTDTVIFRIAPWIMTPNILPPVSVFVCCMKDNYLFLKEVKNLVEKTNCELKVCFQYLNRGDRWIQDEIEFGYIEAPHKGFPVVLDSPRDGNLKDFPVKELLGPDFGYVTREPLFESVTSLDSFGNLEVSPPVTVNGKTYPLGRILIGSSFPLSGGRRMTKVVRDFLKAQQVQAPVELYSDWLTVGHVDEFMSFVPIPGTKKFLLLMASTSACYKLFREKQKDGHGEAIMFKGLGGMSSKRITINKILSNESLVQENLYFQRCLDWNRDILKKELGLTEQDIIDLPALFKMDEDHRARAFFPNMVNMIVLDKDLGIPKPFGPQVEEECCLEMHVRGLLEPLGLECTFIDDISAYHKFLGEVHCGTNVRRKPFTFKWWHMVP

IC50: 14.4 mM
Structure (SMILES): N=C(N)CCl [2CA, 2-chloroacetamidine]
